Measured values taken from patent publication US20220395511A1, “COMPOSITIONS AND METHODS FOR INCREASING CELL SURFACE OXYTOCIN RECEPTOR (OXTR)” (Washington University, priority 2021, published 2022).
“Also recorded” adds a separate entry of the source. Read-outs that look alike come from different tables or passages of the source.

What was measured:
OXTR = target: T1, OXTR (Homo sapiens, UniProt P30559); conditions: in words, cited from earlier work
T1 sequence (P30559 1-389): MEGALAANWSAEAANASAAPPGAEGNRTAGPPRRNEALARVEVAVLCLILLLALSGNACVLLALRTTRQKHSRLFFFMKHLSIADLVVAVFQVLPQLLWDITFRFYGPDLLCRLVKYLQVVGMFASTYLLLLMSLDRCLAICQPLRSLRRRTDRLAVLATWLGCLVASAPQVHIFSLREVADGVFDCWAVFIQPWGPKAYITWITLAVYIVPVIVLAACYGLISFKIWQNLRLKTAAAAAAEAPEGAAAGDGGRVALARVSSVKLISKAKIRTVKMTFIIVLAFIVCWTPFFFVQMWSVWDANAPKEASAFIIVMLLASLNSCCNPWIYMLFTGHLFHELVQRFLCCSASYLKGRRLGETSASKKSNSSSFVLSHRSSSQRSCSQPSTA

[1] = target: T2, WT OXTR endogenously expressed in hTERT-HM cells (Homo sapiens, UniProt P30559); experiment: Quantitative flow cytometry of cell surface HA-OXTR in hTERT-HM cells; format: cell-based; conditions: for decrease of baseline cell surface OXTR abundance: cycloheximide 25 μg/mL, brefeldin A 5 μg/mL
T2 construct: hTERT-immortalized human myometrial (hTERT-HM) cells, which endogenously express WT OXTR; endogenous in cells; host or cells: hTERT-HM (genome-edited: HA knock-in at the OXTR locus)
T2 sequence (P30559 1-389): T1 sequence (P30559 1-389)
Experimental: These experiments were performed in the hTERT-immortalized human myometrial cell line, which was modified to introduce an N-terminal HA tag upstream of OXTR. […] OXTR was quantified by performing flow cytometry with a fluorescent antibody against HA. TCOT=TC-OT 39 ((2S)—N-[[4-[(4,10-dihydro-1-methylpyrazolo[3,4-b][1,5]benzodiazepin-5(1H)-yl)carbonyl]-2-methylphenyl]methyl]-2-[(hexahydro-4-methyl-1H-1,4-diazepin-1-yl)thioxomethyl]-1-pyrrolidinecarboxamide), partial OXTR agonist. CON=conivaptan (N-[4-(2-methyl-4,5-dihydro-3H-imidazo[4,5-d][1]benzazepine-6-carbonyl)phenyl]-2-phenylbenzamide; also known as YM087), vasopressin inhibitor. TASP=TASP 0390325 (2-(3-Chloro-4-fluorophenyl)-N-(1-methylethyl)-6-[3-(4-morpholinyl)propoxy]-4-oxo-pyrido[2,3-d]pyrimidine-3(4H)-acetamide hydrochloride), vasopressin inhibitor. WAY=WAY 267464 (4-(3,5-Dihydroxybenzyl)-N-(2-methyl-4-[(1-methyl-4,10-dihydropyrazolo[3,4-b][1,5]benzodiazepin-5(1H)-yl)carbonyl]benzyl)piperazine-1-carboxamide), OXTR agonist. TOL=tolvaptan (N-(4-{[(5R)-7-Chloro-5-hydroxy-2,3,4,5-tetrahydro-1H-1-benzazepin-1-yl]carbonyl}-3-methylphenyl)-2-methylbenzamide; also known as OPC41061), vasopressin inhibitor. OPC=OPC 21268 (N-[3-[4-[[4-(3,4-dihydro-2-oxo-1(2H)-quinolinyl)-1-piperidinyl]carbonyl]phenoxy]propyl]-acetamide), vasopressin inhibitor. SSR=SSR 149415 ((2S,4R)-1-[(3R)-5-Chloro-1-[(2,4-dimethoxyphenyl)sulfonyl]-2,3-dihydro-3-(2-methoxyphenyl)-2-oxo-1H-indol-3-yl]-4-hydroxy-N,N-dimethyl-2-pyrrolidinecarboxamide), vasopressin inhibitor. SR=SR49059 ((2S)-1-[[(2R,3S)-5-Chloro-3-(2-chlorophenyl)-1-[(3,4-dimethoxyphenyl)sulfonyl]-2,3-dihydro-3-hydroxy-1H-indol-2-yl]carbonyl]-2-pyrrolidinecarboxamide), vasopressin inhibitor. L371=L371,257 (1-[1-[4-(1-acetylpiperidin-4-yl)oxy-2-methoxybenzoyl]piperidin-4-yl]-4H-3,1-benzoxazin-2-one), OXTR antagonist.
Because specific antibodies to OXTR are not commercially available, CRISPR-Cas9 was used to introduce an HA tag at the N-terminus of OXTR in the hTERT-HM cell line. […]
To determine the mechanism of action of SR49059 and L371,257, hTERT-HM cells were treated for 12 h with cycloheximide (25 μg/mL), which inhibits protein translation, and brefeldin A (5 μg/mL), which blocks protein transport from the endoplasmic reticulum to the Golgi.
The Genome Engineering and iPSC Center at Washington University in St Louis used CRISPR-Cas9 to introduce an HA tag at the N-terminus of the OXTR gene in hTERT-HM cells. After drug incubation, cells were detached with TrypLE Express (Thermo Fisher) before flow cytometry.

WT OXTR = target: T3, WT OXTR (Homo sapiens, UniProt P30559); experiment: Quantitative flow cytometry of cell surface WT HA-OXTR-GFP in transfected HEK293T cells; format: cell-based; conditions: for more surface WT OXTR than vehicle-treated cells: HEK293T, WT HA-OXTR-GFP, 10 μM, 16 h
T3 construct: expressed in transfected cells; host or cells: HEK293T (transient)
T3 sequence (P30559 1-389): T1 sequence (P30559 1-389)

[2] = target: T4, WT OXTR in hTERT-HM cells (Homo sapiens, UniProt P30559); experiment: Oxytocin-induced IP1 production in hTERT-HM cells; format: cell-based; conditions: for increase of maximal IP1 production: hTERT-HM, N=5 (FIG. 8D)
T4 construct: hTERT-immortalized human myometrial (hTERT-HM) cells, which endogenously express WT OXTR; endogenous in cells; host or cells: hTERT-HM
T4 sequence (P30559 1-389): T1 sequence (P30559 1-389)

[3] = hTERT-HM, HA-OXTR, 10 μM, 16 h (overnight)

CC(=O)NCCCOc1ccc(C(=O)N2CCC(N3C(=O)CCc4ccccc43)CC2)cc1 [OPC21268, N-[3-[4-[[4-(3,4-dihydro-2-oxo-1(2H)-quinolinyl)-1-piperidinyl]carbonyl]phenoxy]propyl]-acetamide]
reported OXTR affinity (OXTR): medium OXTR affinity

Cc1nc2c([nH]1)CCN(C(=O)c1ccc(NC(=O)c3ccccc3-c3ccccc3)cc1)c1ccccc1-2 [YM087, N-[4-(2-methyl-4,5-dihydro-3H-imidazo[4,5-d][1]benzazepine-6-carbonyl)phenyl]-2-phenylbenzamide]
effect on cell surface OXTR in hTERT-HM cells [1, 3]: significantly decreased | reported OXTR affinity (OXTR): medium OXTR affinity

Cc1ccccc1C(=O)Nc1ccc(C(=O)N2CCC[C@@H](O)c3cc(Cl)ccc32)c(C)c1 [OPC41061, N-(4-{[(5R)-7-Chloro-5-hydroxy-2,3,4,5-tetrahydro-1H-1-benzazepin-1-yl]carbonyl}-3-methylphenyl)-2-methylbenzamide]
effect on cell surface OXTR in hTERT-HM cells [1, 3]: increased

COc1ccc(S(=O)(=O)N2c3ccc(Cl)cc3[C@](O)(c3ccccc3Cl)[C@@H]2C(=O)N2CCC[C@H]2C(N)=O)cc1OC [SR49059, (2S)-1-[[(2R,3S)-5-Chloro-3-(2-chlorophenyl)-1-[(3,4-dimethoxyphenyl)sulfonyl]-2,3-dihydro-3-hydroxy-1H-indol-2-yl]carbonyl]-2-pyrrolidinecarboxamide]
effect on cell surface WT OXTR (WT OXTR; HEK293T transfected with WT OXTR): robustly increased | more surface WT OXTR than vehicle-treated cells (WT OXTR): 170% | treatment time at which surface OXTR reached a plateau ([1]; hTERT-HM time course): 6 h | effect on cell surface OXTR in hTERT-HM cells [1, 3]: robustly increased | increase of cell surface OXTR abundance ([1]; hTERT-HM, 10 μM, 16 h): 2.3 fold | increase of surface OXTR localization after 4 h of treatment ([1]; hTERT-HM, 4 h): more than twofold | effect on cell surface OXTR in cells also treated with cycloheximide ([1]; hTERT-HM, 12 h, 10 μM with cycloheximide 25 μg/mL): no effect | effect on cell surface OXTR in cells also treated with brefeldin A ([1]; hTERT-HM, 12 h, with brefeldin A 5 μg/mL): no effect | surface OXTR localization at 48 h of treatment ([1]; hTERT-HM, 48 h): remained high | increase of maximal IP1 production [2]: 37% | increase of maximal oxytocin response (IP1 accumulation) ([2]; human myometrial (hTERT-HM) cells, 10 μM overnight, N=3 (FIG. 2)): 12% | reported OXTR affinity (OXTR): medium OXTR affinity

Cc1cc(C(=O)N2Cc3cnn(C)c3Nc3ccccc32)ccc1CNC(=O)N1CCN(Cc2cc(O)cc(O)c2)CC1 [WAY26746, 4-(3,5-Dihydroxybenzyl)-N-(2-methyl-4-[(1-methyl-4,10-dihydropyrazolo[3,4-b][1,5]benzodiazepin-5(1H)-yl)carbonyl]benzyl)piperazine-1-carboxamide]
effect on cell surface OXTR in hTERT-HM cells [1, 3]: no effect

C[C@H]1CCC/C=C/[C@@H]2C[C@H](O)C[C@H]2[C@H](O)/C=C/C(=O)O1 [brefeldin A]
decrease of baseline cell surface OXTR abundance ([1]; hTERT-HM, 12 h): 62%

CC(C)NC(=O)Cn1c(-c2ccc(F)c(Cl)c2)nc2ncc(OCCCN3CCOCC3)cc2c1=O.Cl [TASP0390325, 2-(3-Chloro-4-fluorophenyl)-N-(1-methylethyl)-6-[3-(4-morpholinyl)propoxy]-4-oxo-pyrido[2,3-d]pyrimidine-3(4H)-acetamide hydrochloride]
reported OXTR affinity (OXTR; hydrochloride): extremely low affinity; also recorded: antagonist; low

COc1ccc(S(=O)(=O)N2C(=O)[C@@](c3ccccc3OC)(N3C[C@H](O)C[C@H]3C(=O)N(C)C)c3cc(Cl)ccc32)c(OC)c1 [SSR149415, (2S,4R)-1-[(3R)-5-Chloro-1-[(2,4-dimethoxyphenyl)sulfonyl]-2,3-dihydro-3-(2-methoxyphenyl)-2-oxo-1H-indol-3-yl]-4-hydroxy-N,N-dimethyl-2-pyrrolidinecarboxamide]
reported OXTR affinity (OXTR): medium OXTR affinity

COc1cc(OC2CCN(C(C)=O)CC2)ccc1C(=O)N1CCC(N2C(=O)OCc3ccccc32)CC1 [L371,257, 1-[1-[4-(1-acetylpiperidin-4-yl)oxy-2-methoxybenzoyl]piperidin-4-yl]-4H-3,1-benzoxazin-2-one]
more surface WT OXTR than vehicle-treated cells (WT OXTR): 170% | effect on cell surface OXTR in cells also treated with brefeldin A [1]: no effect | effect on cell surface OXTR in hTERT-HM cells [1]: greatest effect of all the candidate compounds | increase of cell surface OXTR abundance [1]: 2.9 fold | increase of surface OXTR in cells treated with cycloheximide [1]: 20% | increase of surface OXTR localization after 4 h of treatment [1]: more than twofold | surface OXTR localization at 48 h of treatment [1]: remained high | treatment time at which surface OXTR reached a plateau [1]: 6 h | increase of maximal IP1 production [2]: 35%

Cc1cc(C(=O)N2Cc3cnn(C)c3Nc3ccccc32)ccc1CNC(=O)N1CCC[C@H]1C(=S)N1CCCN(C)CC1 [TCOT39, (2S)-N-[[4-[(4,10-dihydro-1-methylpyrazolo[3,4-b][1,5]benzodiazepin-5(1H)-yl)carbonyl]-2-methylphenyl]methyl]-2-[(hexahydro-4-methyl-1H-1,4-diazepin-1-yl)thioxomethyl]-1-pyrrolidinecarboxamide]
effect on cell surface OXTR in hTERT-HM cells [1, 3]: decreased

C[C@@H]1C[C@@H]([C@H](O)CC2CC(=O)NC(=O)C2)C(=O)[C@@H](C)C1 [Cycloheximide]
decrease of baseline cell surface OXTR abundance ([1]; hTERT-HM, 12 h): 18%
